{
  "source": "patent US6497890B2",
  "about": "“Anti-wrinkle preparation and method of reducing wrinkles in facial skin and neck” (priority 1996, dated 2002)",
  "origin": "cited, not measured here",
  "data": [
    {"system": "rheumatoid arthritis patients", "conditions": "RA patients; mostly", "units": {"onset of action": "month"}, "values": [
      {"smiles": "CN(Cc1cnc2nc(N)nc(N)c2n1)c1ccc(C(=O)N[C@@H](CCC(=O)O)C(=O)O)cc1", "note": "[Methotrexate]", "onset of action": "≤ 1"}
    ]},
    {"system": "rheumatoid arthritis patients", "conditions": "remittive agents in RA", "values": [
      {"smiles": "CC(=O)OC[C@H]1O[C@@H]([S-])[C@H](OC(C)=O)[C@@H](OC(C)=O)[C@@H]1OC(C)=O.CCP(CC)CC.[Au+]", "note": "[Auranofin]", "EFFICACY (estimated rate)": "Intermediate", "TOXICITY (estimated rate)": "Intermediate"},
      {"smiles": "Cn1cnc([N+](=O)[O-])c1Sc1ncnc2nc[nH]c12", "note": "[Azathioprine]", "EFFICACY (estimated rate)": "Intermediate", "TOXICITY (estimated rate)": "High"},
      {"smiles": "O=P1(N(CCCl)CCCl)NCCCO1", "note": "(centres unmarked) [Cyclophosphamide]", "EFFICACY (estimated rate)": "High", "TOXICITY (estimated rate)": "High"},
      {"smiles": "CCN(CCO)CCCC(C)Nc1ccnc2cc(Cl)ccc12", "note": "(centres unmarked) [Hydroxychloroquine]", "EFFICACY (estimated rate)": "Intermediate", "TOXICITY (estimated rate)": "Low"},
      {"smiles": "CN(Cc1cnc2nc(N)nc(N)c2n1)c1ccc(C(=O)N[C@@H](CCC(=O)O)C(=O)O)cc1", "note": "[Methotrexate]", "EFFICACY (estimated rate)": "High", "TOXICITY (estimated rate)": "Intermediate"},
      {"smiles": "CC(C)(S)[C@@H](N)C(=O)O", "note": "[Penicillamine]", "EFFICACY (estimated rate)": "Intermediate", "TOXICITY (estimated rate)": "High"},
      {"smiles": "O=C(O)c1cc(/N=N/c2ccc(S(=O)(=O)Nc3ccccn3)cc2)ccc1O", "note": "[Sulfasalazine]", "EFFICACY (estimated rate)": "Intermediate", "TOXICITY (estimated rate)": "Intermediate"}
    ]},
    {"system": "not given", "conditions": "commonly prescribed NSAIDS", "units": {"Half Life": "h"}, "values": [
      {"smiles": "O=C(O)Cc1ccccc1Nc1c(Cl)cccc1Cl", "note": "[Diclofenac]", "Half Life": 1.5},
      {"smiles": "CC(C(=O)O)c1cccc(Oc2ccccc2)c1", "note": "(centres unmarked) [Fenoprofen]", "Half Life": 2},
      {"smiles": "COc1ccc2c(c1)c(CC(=O)O)c(C)n2C(=O)c1ccc(Cl)cc1", "note": "[Indomethacin]", "Half Life": "3 to 11"},
      {"smiles": "Cc1ccc(Cl)c(Nc2ccccc2C(=O)O)c1Cl", "note": "[Meclofenamate]", "Half Life": "2 to 3"},
      {"smiles": "O=C(O)CCc1nc(-c2ccccc2)c(-c2ccccc2)o1", "note": "[Oxaprozin]", "Half Life": 40},
      {"smiles": "CN1C(C(=O)Nc2ccccn2)=C(O)c2ccccc2S1(=O)=O", "note": "[Piroxicam]", "Half Life": "30 to 86"},
      {"smiles": "CC1=C(CC(=O)O)c2cc(F)ccc2/C1=C\\c1ccc([S+](C)[O-])cc1", "note": "(centres unmarked) [Sulindac]", "Half Life": 16},
      {"smiles": "Cc1ccc(C(=O)c2ccc(CC(=O)O)n2C)cc1", "note": "[Tolmetin]", "Half Life": "1 to 2"}
    ]}
  ]
}
